# Where two headings read alike, the source gives them in different places.
# Key:
# Type in all cases: biochemical
# mMASP-2 = mMASP-2 (Mus musculus (Mouse), UniProt Q91WP0); assay: Enzymatic inhibition of mMASP-2
# human α-thrombin = human α-thrombin (Homo sapiens (Human), UniProt P00734); assay: Enzymatic assay for thrombin (Boc-VPR-AMC substrate)
# MASP-2 (CCP1-CCP2-SP) = MASP-2 (CCP1-CCP2-SP) (Homo sapiens (Human), UniProt O00187); assay: biochemical; conditions: for MASP-2 vs. thrombin selectivity: selectivity for MASP-2 inhibition versus thrombin
# MASP-2 (CCP1-CCP2-SP), sequence (O00187 445-686): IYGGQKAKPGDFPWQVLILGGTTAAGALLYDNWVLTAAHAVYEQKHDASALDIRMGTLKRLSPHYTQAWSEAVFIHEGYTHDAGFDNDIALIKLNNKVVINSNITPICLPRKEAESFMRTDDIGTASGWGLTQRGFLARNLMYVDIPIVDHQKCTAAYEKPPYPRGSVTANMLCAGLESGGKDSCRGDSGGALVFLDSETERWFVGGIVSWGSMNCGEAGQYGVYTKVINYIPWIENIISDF
# mMASP-2, sequence (Q91WP0 20-685): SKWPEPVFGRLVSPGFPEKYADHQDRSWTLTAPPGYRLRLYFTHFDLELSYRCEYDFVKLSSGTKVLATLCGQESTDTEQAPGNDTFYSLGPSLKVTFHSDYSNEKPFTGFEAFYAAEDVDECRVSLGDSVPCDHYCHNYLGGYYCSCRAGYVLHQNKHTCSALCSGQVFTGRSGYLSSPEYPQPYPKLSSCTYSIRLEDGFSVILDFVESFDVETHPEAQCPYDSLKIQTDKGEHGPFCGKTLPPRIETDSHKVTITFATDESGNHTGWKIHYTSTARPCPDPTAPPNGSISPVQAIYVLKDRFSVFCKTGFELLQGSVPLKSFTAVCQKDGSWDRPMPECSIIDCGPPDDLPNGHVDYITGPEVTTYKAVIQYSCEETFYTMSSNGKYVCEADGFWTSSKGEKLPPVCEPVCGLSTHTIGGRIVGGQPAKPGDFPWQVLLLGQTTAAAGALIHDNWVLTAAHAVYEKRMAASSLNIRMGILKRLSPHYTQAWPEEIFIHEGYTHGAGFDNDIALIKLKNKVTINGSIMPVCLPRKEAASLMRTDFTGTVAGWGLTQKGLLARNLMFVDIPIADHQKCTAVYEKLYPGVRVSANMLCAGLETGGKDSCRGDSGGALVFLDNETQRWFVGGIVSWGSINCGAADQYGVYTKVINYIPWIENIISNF
Compound,Ki (mMASP-2; read-out: mMASP-2 Ki) [µM],Ki (human α-thrombin; Thrombin Ki (μM)) [µM],Ki (MASP-2 (CCP1-CCP2-SP); read-out: MASP-2 Ki) [µM],MASP-2 vs. thrombin selectivity (MASP-2 (CCP1-CCP2-SP)),Ki (human α-thrombin; read-out: Thrombin Ki) [µM],Ki (MASP-2 (CCP1-CCP2-SP)) [µM],Ki (mMASP-2) [µM]
"C[C@H](NC(=O)[C@@H](CCc1ccccc1)NCc1ccc(-c2nnn[nH]2)cc1)C(=O)NCc1ccc(C(=N)N)cc1 [compound 1233, (R)-2-((4-(1H-Tetrazol-5-yl)benzyl)amino)-N—((S)-1-((4-carbamimidoylbenzyl)amino)-1-oxopropan-2-yl)-4-phenylbutanamide]",< 0.5,0.5 to 2.5,< 0.5,* (≥1.0 to <5.0-fold),–,–,–
"C[C@H](NC(=O)[C@@H](CCc1ccccc1)NCc1ccc(OCCO)cc1)C(=O)NCc1ccc(C(=N)N)cc1 [compound 1236, (R)—N—((S)-1-((4-Carbamimidoylbenzyl)amino)-1-oxopropan-2-yl)-2-((4-(2-hydroxyethoxy)benzyl)amino)-4-phenylbutanamide]",< 0.5,–,< 0.5,* (≥1.0 to <5.0-fold),< 0.5,–,–
"COc1ccc(-c2c[nH]c(C(=O)N[C@@H](C)C(=O)NCc3ccc(C(=N)N)cc3)c2)cc1 [compound 1238, (S)—N-(1-((4-Carbamimidoylbenzyl)amino)-1-oxopropan-2-yl)-4-(4-methoxyphenyl)-1H-pyrrole-2-carboxamide]",< 0.5,2.5 to 10,< 0.5,*** (≥25 to <100-fold),–,–,–
"Cc1cccc([C@@H]2CCN[C@@H](C(=O)N[C@@H](C)C(=O)NCc3ccc(C(=N)N)cc3)C2)c1 [compound 1241, (2R,4R)—N—((S)-1-((4-Carbamimidoylbenzyl)amino)-1-oxopropan-2-yl)-4-(m-tolyl)piperidine-2-carboxamide]",< 0.5,–,< 0.5,* (≥1.0 to <5.0-fold),< 0.5,–,–
"C[C@H](NC(=O)[C@H]1C[C@H](c2ccccc2)CN1)C(=O)NCc1cc(Cl)ccc1O [compound 1242, (2R,4R)—N—((S)-1-((5-Chloro-2-hydroxybenzyl)amino)-1-oxopropan-2-yl)-4-phenylpyrrolidine-2-carboxamide]",2.5 to 10,2.5 to 10,–,** (≥5.0 to <25-fold),–,0.5 to 2.5,–
"Cc1nc(N)ccc1CNC(=O)[C@H](C)NC(=O)[C@H](N)CCc1ccccc1 [compound 1245, (R)-2-Amino-N—((S)-1-(((6-amino-2-methylpyridin-3-yl)methyl)amino)-1-oxopropan-2-yl)-4-phenylbutanamide]",10 to 25,10 to 25,< 0.5,**** (≥100-fold),–,–,–
"Cc1cccc([C@H]2CN[C@@H](C(=O)N[C@@H](C)C(=O)NCc3ccc(C(=N)N)cc3)C2)c1 [compound 1247, (2R,4S)—N—((S)-1-((4-Carbamimidoylbenzyl)amino)-1-oxopropan-2-yl)-4-(m-tolyl)pyrrolidine-2-carboxamide]",< 0.5,0.5 to 2.5,< 0.5,*** (≥25 to <100-fold),–,–,–
"Cc1ccc([C@@H]2CCN[C@@H](C(=O)N[C@@H](C)C(=O)NCc3ccc(C(=N)N)cc3)C2)cc1 [compound 1248, (2R,4R)—N—((S)-1-((4-Carbamimidoylbenzyl)amino)-1-oxopropan-2-yl)-4-(p-tolyl)piperidine-2-carboxamide]",< 0.5,0.5 to 2.5,< 0.5,** (≥5.0 to <25-fold),–,–,–
"Cc1ccc([C@H]2CCN[C@@H](C(=O)N[C@@H](C)C(=O)NCc3ccc(C(=N)N)cc3)C2)cc1 [compound 1249, (2R,4S)—N—((S)-1-((4-Carbamimidoylbenzyl)amino)-1-oxopropan-2-yl)-4-(p-tolyl)piperidine-2-carboxamide]",< 0.5,10 to 25,< 0.5,**** (≥100-fold),–,–,–
"C[C@H](NC(=O)[C@@H](CCc1ccccc1)NCc1ccc(N2CCN(S(C)(=O)=O)CC2)cc1)C(=O)NCc1ccc(C(=N)N)cc1 [compound 1250, (R)—N—((S)-1-((4-Carbamimidoylbenzyl)amino)-1-oxopropan-2-yl)-2-((4-(4-(methylsulfonyl)piperazin-1-yl)benzyl)amino)-4-phenylbutanamide]",< 0.5,–,< 0.5,* (≥1.0 to <5.0-fold),< 0.5,–,–
"Cc1cccc([C@H]2CN[C@@H](C(=O)N[C@@H](C)C(=O)NCc3ccc(N)nc3C)C2)c1 [compound 1257, (2R,4S)—N—((S)-1-(((6-Amino-2-methylpyridin-3-yl)methyl)amino)-1-oxopropan-2-yl)-4-(m-tolyl)pyrrolidine-2-carboxamide]",10 to 25,–,< 0.5,*** (≥25 to <100-fold),> 25,–,–
"C[C@H](NC(=O)[C@H](N)C/C=C/c1ccccc1)C(=O)NCc1ccc(N)nc1 [compound 1261, (R, E)-2-Amino-N—((S)-1-(((6-aminopyridin-3-yl)methyl)amino)-1-oxopropan-2-yl)-5-phenylpent-4-enamide]",10 to 25,–,–,* (≥1.0 to <5.0-fold),> 25,10 to 25,–
"CCCOC(=O)NC(=N)c1ccc(CNC(=O)[C@H](C)NC(=O)[C@H]2C[C@H](c3ccccc3)CN2)cc1 [compound 1263, Propyl (imino(4-(((S)-2-((2R,4R)-4-phenylpyrrolidine-2-carboxamido)propanamido)methyl)phenyl)methyl)carbamate]",–,–,–,–,> 25,2.5 to 10,2.5 to 10
"CC(=O)O/N=C(\N)c1ccc(CNC(=O)[C@H](C)NC(=O)[C@H]2C[C@H](c3ccccc3)CN2)cc1 [compound 1264, (2R,4R)—N—((S)-1-((4-((Z)-N′-Acetoxycarbamimidoyl)benzyl)amino)-1-oxopropan-2-yl)-4-phenylpyrrolidine-2-carboxamide]",–,–,–,–,> 25,2.5 to 10,10 to 25
"Cc1nc(N)ccc1CNC(=O)[C@H](C)NC(=O)[C@H]1C[C@H](c2ccccc2)CN1 [compound 1265, (2R,4R)—N—((S)-1-(((6-Amino-2-methylpyridin-3-yl)methyl)amino)-1-oxopropan-2-yl)-4-phenylpyrrolidine-2-carboxamide]",2.5 to 10,–,< 0.5,**** (≥100-fold),> 25,–,–
"COc1cc(CNC(=O)[C@H](C)NC(=O)[C@H](N)CCc2ccccc2)cnc1N [compound 1266, (R)-2-Amino-N—((S)-1-(((6-amino-5-methoxypyridin-3-yl)methyl)amino)-1-oxopropan-2-yl)-4-phenylbutanamide]",> 25,–,–,** (≥5.0 to <25-fold),> 25,0.5 to 2.5,–
"C[C@H](NC(=O)[C@H](N)CCc1ccccc1)C(=O)NCc1cnc(N)c(F)c1 [compound 1267, (R)-2-amino-N—((S)-1-(((6-amino-5-fluoropyridin-3-yl)methyl)amino)-1-oxopropan-2-yl)-4-phenylbutanamide]",> 25,–,–,–,> 25,2.5 to 10,–
"C[C@H](NC(=O)[C@@H](CCc1ccccc1)NCc1ccc(C(N)=O)cc1)C(=O)NCc1ccc(C(=N)N)cc1 [compound 1268, 4-((((R)-1-(((S)-1-((4-Carbamimidoylbenzyl)amino)-1-oxopropan-2-yl)amino)-1-oxo-4-phenylbutan-2-yl)amino)methyl)benzamide]",< 0.5,–,< 0.5,* (≥1.0 to <5.0-fold),< 0.5,–,–
"CC(=O)Nc1ccc(Cl)cc1CNC(=O)[C@H](C)NC(=O)[C@H]1C[C@H](c2ccccc2)CN1 [compound 1269, (2R,4R)—N—((S)-1-((2-Acetamido-5-chlorobenzyl)amino)-1-oxopropan-2-yl)-4-phenylpyrrolidine-2-carboxamide]",10 to 25,–,–,** (≥5.0 to <25-fold),> 25,0.5 to 2.5,–
"C[C@H](NC(=O)[C@H](N)CCc1ccccc1)C(=O)NCc1ccc(C(=N)N)nc1 [compound 1270, (R)-2-Amino-N—((S)-1-(((6-carbamimidoylpyridin-3-yl)methyl)amino)-1-oxopropan-2-yl)-4-phenylbutanamide]",< 0.5,–,< 0.5,** (≥5.0 to <25-fold),< 0.5,–,–
"C[C@H](NC(=O)[C@H]1C[C@@H](c2ccccc2)CCN1)C(=O)NCc1ccccc1 [compound 1271, (2R,4S)—N—((S)-1-(benzylamino)-1-oxopropan-2-yl)-4-phenylpiperidine-2-carboxamide]",> 25,–,–,–,> 25,2.5 to 10,–
"C[C@H](NC(=O)[C@H]1C[C@H](c2ccccc2)CN1)C(=O)NCc1ccc(C(=N)N)nc1 [compound 1272, (2R,4R)—N—((S)-1-(((6-Carbamimidoylpyridin-3-yl)methyl)amino)-1-oxopropan-2-yl)-4-phenylpyrrolidine-2-carboxamide]",< 0.5,0.5 to 2.5,< 0.5,*** (≥25 to <100-fold),–,–,–

# — patent US11584714B2 (priority 2018, dated 2023)
